The source of these data is patent US20060035869A1, “Inhibitors of epoxide hydrolases for the treatment of hypertension” (THE REGENTS OF THE UNIVERSITY OF CALIFORNIA OFFICE OF …, priority 1999, published 2006).

Like-named read-outs stand apart in the source and are kept apart here.

The target of one assay is T1, mouse sEH (Mus musculus, UniProt P34914).
T1 construct: made in house; host or cells: baculovirus expression system (insect cells)
T1 sequence (P34914 1-554): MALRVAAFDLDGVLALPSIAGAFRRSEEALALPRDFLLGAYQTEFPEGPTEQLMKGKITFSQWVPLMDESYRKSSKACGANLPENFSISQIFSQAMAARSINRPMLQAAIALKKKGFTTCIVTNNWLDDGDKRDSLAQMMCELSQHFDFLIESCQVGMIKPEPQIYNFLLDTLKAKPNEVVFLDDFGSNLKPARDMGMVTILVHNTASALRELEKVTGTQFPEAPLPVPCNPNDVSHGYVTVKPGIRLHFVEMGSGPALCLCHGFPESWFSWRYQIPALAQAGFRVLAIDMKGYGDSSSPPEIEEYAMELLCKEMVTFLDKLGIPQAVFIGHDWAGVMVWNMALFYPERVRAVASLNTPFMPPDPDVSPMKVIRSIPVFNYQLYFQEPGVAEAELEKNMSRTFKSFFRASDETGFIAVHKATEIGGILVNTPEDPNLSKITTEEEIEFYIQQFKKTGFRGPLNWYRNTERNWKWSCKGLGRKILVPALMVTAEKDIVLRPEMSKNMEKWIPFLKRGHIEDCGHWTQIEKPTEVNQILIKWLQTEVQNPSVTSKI
As to the kind of experiment: Inhibition of recombinant mouse soluble EH, spectrophotometric NEP2C assay. The format is biochemical. On the procedure:
(§1) Recombinant mouse sEH (MsEH) and human sEH (HsEH) were produced in a baculovirus expression system as previously reported. […] The expressed proteins were purified from cell lysate by affinity chromatography. […] Protein concentration was quantified using the Pierce BCA assay using bovine serum albumin as the calibrating standard.
(§2) The mixture was incubated at 30° C. for 5 minutes. […] Assays were performed in quadruplicate.

The target in a further assay is T2, human sEH (Homo sapiens, UniProt P34913).
T2 construct: made in house; host or cells: baculovirus expression system (insect cells)
T2 sequence (P34913 1-555): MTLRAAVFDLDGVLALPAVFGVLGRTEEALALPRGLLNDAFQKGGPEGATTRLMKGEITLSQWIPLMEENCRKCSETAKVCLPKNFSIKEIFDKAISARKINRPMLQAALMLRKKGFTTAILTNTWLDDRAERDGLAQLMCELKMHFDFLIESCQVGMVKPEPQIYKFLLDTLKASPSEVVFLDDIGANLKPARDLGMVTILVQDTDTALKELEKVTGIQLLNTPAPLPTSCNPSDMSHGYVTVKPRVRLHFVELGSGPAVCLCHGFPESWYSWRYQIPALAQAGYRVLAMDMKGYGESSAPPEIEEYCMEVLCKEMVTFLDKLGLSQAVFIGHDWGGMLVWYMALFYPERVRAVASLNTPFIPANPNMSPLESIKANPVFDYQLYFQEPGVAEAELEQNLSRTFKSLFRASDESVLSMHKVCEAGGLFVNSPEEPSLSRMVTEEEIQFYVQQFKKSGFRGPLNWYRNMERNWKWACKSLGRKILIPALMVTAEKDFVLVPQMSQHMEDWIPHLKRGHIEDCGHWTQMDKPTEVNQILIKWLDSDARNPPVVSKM
As to the kind of experiment: Inhibition of recombinant human soluble EH, spectrophotometric NEP2C assay. The format is biochemical. The note with it: recombinant enzyme, NEP2C 40 μM, 30° C., pH 7.4. Here is the method:
as §1, §2

In a further assay the target is T3, Rat mEH (Rattus norvegicus, UniProt P07687).
T3 sequence (P07687 1-455): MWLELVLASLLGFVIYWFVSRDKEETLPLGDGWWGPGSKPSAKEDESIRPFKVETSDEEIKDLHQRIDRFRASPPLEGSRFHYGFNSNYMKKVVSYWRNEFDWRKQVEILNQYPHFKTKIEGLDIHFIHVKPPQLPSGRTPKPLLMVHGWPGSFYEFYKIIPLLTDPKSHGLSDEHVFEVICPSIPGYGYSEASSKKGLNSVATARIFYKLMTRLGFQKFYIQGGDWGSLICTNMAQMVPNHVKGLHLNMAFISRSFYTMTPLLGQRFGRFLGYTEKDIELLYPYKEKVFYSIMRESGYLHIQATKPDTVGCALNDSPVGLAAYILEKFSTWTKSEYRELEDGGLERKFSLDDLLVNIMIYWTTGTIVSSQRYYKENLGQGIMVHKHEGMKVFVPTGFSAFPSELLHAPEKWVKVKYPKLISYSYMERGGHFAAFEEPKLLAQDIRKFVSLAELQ
As to the kind of experiment: Inhibition of mammalian microsomal EH, 3H-cis-stilbene oxide assay. The format is biochemical. On the procedure: as §2

For assay [1], the system named is leukotoxin/isoleukotoxin induced death. As to the kind of experiment: Protection of mice against leukotoxin/isoleukotoxin induced death. The format is in vivo, mouse. As to conditions: Swiss Webster mice, 400 mg/kg i.p. in corn oil 30 minutes before leukotoxin/isoleukotoxin methyl esters 700 mg/kg i.v. Here is the method: Male Swiss Webster mice (25-28 g) were purchased from Simonsen, Gilroy, Calif. The animals had free access to water and food. […] After 30 minutes of the pretreatment, the mice were treated intravenously through the tail vein with a 1:1 mixture of leukotoxin/isoleukotoxin methyl esters in ethanol (700 mg/kg, 1.0 ml/kg).
The mice died of respiratory distress after exposure to leukotoxin/isoleukotoxin. The lethal reactions took place sequentially with accelerated breathing, opening of the mouth to assist breathing, and bloody fluid running from the nose.

Another assay addresses T4, M secta mEH (Manduca sexta, UniProt Q25489).
T4 sequence (Q25489 1-462): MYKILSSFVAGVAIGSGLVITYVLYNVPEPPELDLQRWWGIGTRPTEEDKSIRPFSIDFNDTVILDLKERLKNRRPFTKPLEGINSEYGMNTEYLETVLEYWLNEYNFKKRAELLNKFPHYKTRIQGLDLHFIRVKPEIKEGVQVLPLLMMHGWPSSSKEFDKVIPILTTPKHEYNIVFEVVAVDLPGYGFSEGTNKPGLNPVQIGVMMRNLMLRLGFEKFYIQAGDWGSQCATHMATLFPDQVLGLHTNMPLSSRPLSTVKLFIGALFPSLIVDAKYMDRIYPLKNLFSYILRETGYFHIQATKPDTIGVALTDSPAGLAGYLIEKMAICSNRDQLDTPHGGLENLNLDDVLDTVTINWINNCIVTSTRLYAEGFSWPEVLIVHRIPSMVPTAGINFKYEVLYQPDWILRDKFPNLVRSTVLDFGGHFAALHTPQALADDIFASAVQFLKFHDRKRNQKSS
As to the kind of experiment: Inhibition of recombinant insect microsomal EH. The format is biochemical.

Where [2] appears, read: recombinant enzyme, NEP2C 40 μM, 30° C., pH 7.4, read-out: Mouse sEH IC50.

For `C(=NC1CCCCC1)=NC1CCCCC1` [Compound 1, dicyclohexylcarbodiimide], on mouse sEH (FIG. 1), the “effect of time on the inhibition of mouse sEH” value is “increased with the time”. As to `CCCCCCCCCCN` [Compound 303], the IC50 at mouse sEH (setting [2]) was more than 500 µM; on human sEH, more than 500 µM; on Rat mEH, 2.67 ± 0.07 µM. Turning to `O=C(NC1CCCCC1)NC1CCCCC1` [Compound 2, N,N′-dicyclohexylurea], the IC50 at Rat mEH was more than 500 µM. For the same compound, the “animal death induced by leukotoxin/isoleukotoxin” value in assay [1] is “either blocked the animal death induced by leukotoxin/isoleukotoxin or lengthened the lives of the mice”. As for `O=C(NC1CCCCCCC1)NC1CCCCC1` [Compound 58], the IC50 is more than 500 µM on Rat mEH and 3.9 ± 0.4 µM on M secta mEH. `[H]/N=C(\N/C(=N/[H])NCCCCCCNC(=N)NC(=N)Nc1ccc(Cl)cc1)Nc1ccc(Cl)cc1` [Compound 204]: the IC50 is more than 250 µM on mouse sEH (setting [2]) and 49 ± 7 µM at human sEH. Consider `CCCCCCCCCCCCNC(=O)NCCF` [Compound 238], for which the IC50 on mouse sEH (setting [2]) stood at 50 ± 5 µM; at human sEH, 57 ± 1 µM; against Rat mEH, 9.9 ± 0.2 µM.

`O=C(NCC1CCCCC1)Nc1ccc2ccccc2c1` [Compound 169]: the IC50 against Rat mEH is more than 500 µM.

As for `[O-][S+](Cc1ccccc1)Cc1ccccc1` [Compound 161], the IC50 at mouse sEH is 156 ± 3 µM; on human sEH, 289 ± 7 µM; at Rat mEH, more than 500 µM.

In turn, `O=C(NCCCc1ccccc1)NC1CCCCC1` [Compound 104] displayed an IC50 against Rat mEH of more than 500 µM.

Turning to `O=C(NCC1CCCCC1)NC1CCCCC1` [Compound 57], the IC50 against Rat mEH was more than 500 µM. In the case of `CCCCCCCCCCNC(=O)NC` [Compound 17], on M secta mEH, the IC50 is 28 ± 2 µM. `O=C(Nc1ccc(Oc2ccccc2)cc1)NC1CCCCC1` [Compound 140] showed an IC50 at Rat mEH of more than 500 µM.

`CNC(=O)Nc1ccc(Cl)c(Cl)c1` [Compound 32]: the values for the IC50 at mouse sEH (setting [2]), on human sEH and against Rat mEH were 108 ± 4 µM, 47 ± 2 µM and more than 500 µM, respectively.

With `O=C(NCC1CCCCC1)Nc1cccc(Cl)c1` [Compound 179], the IC50 against Rat mEH was more than 500 µM. Regarding `O=C(NCc1ccc(Cl)cc1)NC1CCCCC1` [Compound 193], at Rat mEH, the IC50 was more than 500 µM. `CC1CCC(C(C)C)C(OC(=O)NC2CCCCC2)C1` (stereo not shown) [Compound 225]: the IC50 was 1.05 ± 0.03 µM at human sEH and more than 500 µM on Rat mEH.

Consider `CCCCCCCCNC(N)=O` [Compound 101], for which the figures for the IC50 at mouse sEH (setting [2]), at human sEH and against Rat mEH were 1.04 ± 0.02 µM, 5.5 ± 0.1 µM and 73 ± 1 µM, respectively.

With `S=C(NC1CCCCC1)NC1CCCCC1` [Compound 12], the IC50 on mouse sEH (setting [2]) stood at 99 ± 5 µM; at human sEH it was 20 ± 1 µM. As for `CCCCCCCCCCNC(=O)NCC` [Compound 19], the IC50 on M secta mEH is 4.8 ± 0.4 µM. Consider `CCCCCCCCCCNC(=O)NCC` [Compound 28], for which the IC50 on mouse sEH (setting [2]) worked out at 5.8 ± 0.4 µM; on human sEH, 48 ± 3 µM; on Rat mEH, 8.3 ± 0.4 µM. In turn, `CC(C)c1ccc(NC(=O)NCC2CCCCC2)cc1` [Compound 180] came in with an IC50 against Rat mEH of more than 500 µM. `CCOC(CCCNC(=O)Nc1cccc(Cl)c1)OCC` [Compound 167] registered an IC50 on Rat mEH of more than 500 µM. On the same count and under the same terms, the result for `CCCCCCCCNC(=O)NC1CCCCC1` [Compound 168] reads more than 500 µM; that for `CCCCCCCCCCNC(=O)Nc1cccc(Cl)c1` [Compound 172], more than 500 µM. Regarding `O=C(NC1CCCCC1)SC1CCCCC1` [Compound 11], the figures for the IC50 on mouse sEH and on human sEH were 3.8 ± 0.01 µM and 7.5 ± 0.4 µM, respectively.
